Experimental data: a melting point compilation (Tetko et al.; mined from patent text by program, amines drawn as free bases though some values may be those of a salt)

SMILES | melting point
COC(=O)COc1ccc(C(=O)c2cccs2)c2c1CCCC2 | 85 °C
COc1ccnc(C(=O)N[C@H]2COC(=O)[C@H](CC3CCCCC3)[C@@H](OC(=O)C(C)C)[C@H](C)OC2=O)c1OC(C)=O | 164 to 170 °C
CC(C)(C)OC(=O)N1CCN(CCSc2nc3ccccc3[nH]2)CC1 | 175 to 176 °C
COC(=O)Cc1ccc(C#N)cc1 | 40 to 41 °C
CNC1CN(CCO)CCN1c1ncc(SC)c(Cl)n1 (stereo unspecified) | 120 to 122 °C
Cc1c[nH]c(C)c1CCC(=O)O | 134 to 136 °C
COc1cc(Nc2nccc(-c3ccc(N4CC[C@@H](N(C)C)C4)nc3)n2)cc(OC)c1OC | 150 to 151 °C
Cc1nnc(-c2ccc3occ(-c4ccc(S(C)=O)c(F)c4)c3c2)o1 (stereo unspecified) | 168 to 169 °C
C=CCONC(CCC)=C1C(=O)OC(CCC)=C(Br)C1=O | 50 to 51 °C
Cc1nccn1-c1cc(C#N)cc(C(F)(F)F)c1 | 132 to 134 °C
CC(C)(CC(O)(CO)C(F)(F)F)c1cc(Br)cc2c1OCC2 (stereo unspecified) | 124 to 128 °C
O=CN1C2CCC1CC(Oc1ccc(Cl)cn1)C2 (stereo unspecified) | 112 to 114 °C
CC1CN(c2ccc(N3CC(CNC(=O)CC#N)OC3=O)cc2F)CCC1=CC#N (stereo unspecified) | 102 to 104 °C
CC(C)NC(=O)c1cc2[nH]cnc2c(Cl)c1NC(=O)c1cc(C(F)(F)F)nn1-c1ncccc1Cl | 200 to 203 °C
CC(Nc1ncnc2c1ncn2C1OC(CO)C(O)C1O)c1ccccc1 (stereo unspecified) | 165 to 167 °C
COc1ccc(NC(=O)C2(C(=O)O)CC2)cc1 | 133 to 136 °C
O=C1Cc2cc3c(CCC4CCN(Cc5ccc(Br)cc5)CC4)noc3cc2N1 | 177 to 178 °C
Cc1nccc(NC(=O)C(CC2CCCC2)c2ccc(S(C)(=O)=O)c(C#N)c2)n1 (stereo unspecified) | 89 to 94 °C
CN1C(=O)CN=C(N2CCC(C)(C)CC2)c2ccccc21 | 143 to 145 °C
CC(=O)C(Cl)=NNc1ccc(C)cc1 | 141 to 143 °C
O=C(c1cnoc1C1CC1)c1ncc(Cl)cc1Cl | 74 to 75 °C
Cc1ccc(-c2cc(C(=O)O)nn2Cc2ccc(Cl)c(Cl)c2)cc1 | 172 °C
CCn1cc(C(=O)O)c(=O)c2cc(F)c(N3CCN(C)CC3)nc21 | 228 to 230 °C

SMILES | melting point
COc1ccc(C=NO)c(OC)c1C | 110 to 111 °C
COC(=O)CC1Sc2sc(S(N)(=O)=O)cc2NC1=O (stereo unspecified) | 195 to 197 °C
CCOC(=O)C(=O)Nc1cccc(S(C)=O)c1C(N)=O (stereo unspecified) | 164 to 166 °C
CC(C)(C)c1cc(-c2ccc([N+](=O)[O-])cc2)cc(C(C)(C)C)c1O | 157 to 160 °C
NCc1nnc2n1-c1sc(Cl)cc1C(c1ccccc1Cl)=NC2 | 190 to 192 °C
COC(=O)c1ccc(N2CCC[C@H](N(Cc3cc(C(F)(F)F)cc(C(F)(F)F)c3)c3nnn(C)n3)c3cc(C)c(C(F)(F)F)cc32)cc1 | 101 to 105 °C
Cc1ccc(S(=O)(=O)NCC2(N3CCN(C)CC3)CCCCC2)cc1 | 128 to 130 °C
CC1(C)CCc2c(ccc3c2C(=O)C(Cl)=C(Cl)C3=O)O1 | 158 to 160 °C
ICC1COc2ccccc2O1 (stereo unspecified) | 38 to 40 °C
CN1C(=O)C2CCCN2Cc2ccccc21 (stereo unspecified) | 120 to 122 °C
COc1cccc(C(F)(F)F)c1S(=O)(=O)NC(=O)Nc1nc(C)cc(C)n1 | 190 °C
COc1ccc2c(c1)c1c(n2CCCN(C)C)CCCSCC1 | 79 to 80 °C
CCN1C(=O)CSC1=NOC(=O)NCCCl | 99 to 102 °C
Cc1ncc(C(=O)NCCOCCO[N+](=O)[O-])s1 | 47 to 48 °C
CC(C)(C(=O)O)c1ccc(OC(F)F)cc1 | 68.5 to 69.5 °C
CCOC(=O)c1sc(OCC)nc1C(F)(F)F | 30.5 to 31.5 °C
Cc1ccc2[nH]c(=O)cc(CCO)c2c1 | 252 to 255 °C
CCOC(=O)C(NC(=O)CNC(=O)CCl)C(=O)OCC | 104 to 105 °C
NC(=O)NCc1cccc2c1C(=O)N(C1CCC(=O)NC1=O)C2=O (stereo unspecified) | 292 to 294 °C
CN(C)c1nn(-c2cc(F)c(C#N)cc2F)c(=O)n1C(F)F | 188 to 190 °C
CN1CCN(c2cc3c(cc2F)c(=O)c(C(=O)O)cn3C2COC2)CC1 | 178 to 180 °C
Cc1oc(C=Cc2cccc(C(F)(F)F)c2)nc1CC#N | 107 to 108 °C

Further lines, results first:

melting point | SMILES
82 to 85 °C | C[Si](C)(C)OC(Cn1ccnc1)(Cn1cncn1)c1ccc(Cl)cc1Cl (stereo unspecified)
168 to 170 °C | Cn1c(=O)cc(-c2cccc(Cl)c2)c2cccnc21
155 to 156 °C | CC1OC(=O)Nc2ccc(-c3cccc(Cl)c3)cc21 (stereo unspecified)
54 to 55 °C | O=[N+]([O-])c1ccc(-n2cccc2)c(Cl)c1
114 to 116 °C | Cc1cccc(N2CCN(CCCCc3ccc(C4CCC(=O)N4)cc3)CC2)c1 (stereo unspecified)
127 to 128 °C | CS(=O)(=O)c1ccc(Oc2ccc(C#N)cc2)cc1
79 to 82 °C | CC(C)C[C@H](NC(=O)N1CCCCCC1)C(=O)OCc1ccccc1
163 to 165 °C | ClC1=Nc2ccccc2Sc2c1csc2Cl
143 to 144 °C | O=C1N[C@@H](C=Cc2ccccc2)[C@H]1O
215 to 226 °C | O=C(O)CCC(Cc1ccc(Cl)cc1Cl)(C(=O)C=Cc1ccc(Cl)cc1)c1ccccc1 (stereo unspecified)
147 to 149 °C | COc1ccc(-c2c(NS(=O)(=O)c3ccc(C)cc3)ncnc2OCCO)cc1
174 to 176 °C | Cn1cnc(COc2nc3c(cc2-c2ccsc2)nnn3-c2ccccc2F)n1
210 to 215 °C | O=[N+]([O-])c1ccc(NS(=O)(=O)c2cccc3ccccc23)cc1
103 to 105 °C | CCCCc1nc2cc(-c3ccccc3)cc(C(=O)OC)c2n1Cc1ccccc1Cl
128 to 129 °C | O=C1OC(CN2CCC(O)(c3ccc(F)cc3)CC2)CN1c1ccccc1 (stereo unspecified)
179 °C | COc1cc(-c2nc3ccccc3n2Cc2ccccc2I)cc(OC)c1OC
105 to 106 °C | COCOc1ccc(CCNC(=O)/C(C#N)=C/c2cccnc2)cc1
165 to 167 °C | COc1ccc(-c2nn(Cc3ccccc3)c(=O)cc2-c2ccc(Cl)cc2)cc1
254 to 255 °C | N#Cc1cnc2cc3c(cc2c1Nc1ccc(Cl)cc1Cl)OCCN3

melting point | SMILES
203 to 205 °C | COc1ccccc1-c1c(NC(=O)OC(C)(C)C)oc(=O)c2ccccc12
116 °C | O=S(=O)(c1ccccc1)N1CCCC1c1ccccc1 (racemic)
279 to 281 °C | COc1ccccc1C(=O)Nc1ccc(CN2C(=O)[C@H]3CCC[C@H]3N(C(=O)CN3C(=O)c4ccccc4C3=O)c3ccccc32)cc1 (relative stereo)
136 to 137 °C | O=[N+]([O-])c1cc(CC(O)(Cn2cncn2)Cn2cncn2)ccc1Cl
116 to 119 °C | O=C(O)CNC(COCc1cc(C(F)(F)F)cc(C(F)(F)F)c1)C(c1ccccc1)c1ccccc1 (stereo unspecified)
95 to 97 °C | CCOC(=O)CCCC(=O)c1cn(-c2cccnc2)c2ccccc12
163 to 164 °C | Cn1cc(C(=O)Nc2ccccc2-c2ccc(Br)cc2)c(C(F)(F)F)c1
139 to 140 °C | N#Cc1ccc(OCc2ccc(CCc3ccncc3)cc2)cc1
221 to 224 °C | COc1cc2c3ccc(OC)c(OC)c3n(S(=O)(=O)c3cc(Cl)ccc3Cl)c2cc1OC
198 °C | O=C([C@H](O)CS(=O)(=O)c1ccc2cc(Cl)ccc2c1)N1CCN(N2CCCCC2=O)CC1
185 to 187 °C | NCCCCc1c[nH]c(-c2ccc(F)cc2)c1-c1ccncc1
126 °C | CCOC(C)=CC(=O)Nc1ccc(Cl)c(Cl)c1
182 to 183 °C | O=[N+]([O-])c1ccccc1-c1nc2ccccc2n1CC(O)CO (stereo unspecified)
88 to 90 °C | COC=C(C(=O)OC)c1ccccc1CBr
190 °C | CC(C)(c1ccc(O)cc1)c1ccc(O)c(C(C)(C)c2ccc(O)cc2)c1
90 °C | O=Cc1cccc(C=Cc2ccccc2)c1
192 to 193 °C | O=S(=O)(NC1CCCCC1)c1ccc(Cn2cnc3ccccc32)cc1
115 to 116 °C | COc1ccc(C=CC(=O)Nc2c(CCO)nc3c(C)cc(C)cc3c2-c2ccccc2Cl)cc1OC
174 to 178 °C | O=C(c1ccc([N+](=O)[O-])cc1)N1Cc2cccn2-c2ccccc21

melting point | SMILES
224 °C | CC(C)C(=O)Oc1cccc2c(-c3ccccc3)c3cccc(OC(=O)C(C)C)c3c(OC(=O)C(C)C)c12
205 to 206 °C | Cc1c(NC(=O)c2ccc(-c3ccc(Cl)s3)cc2F)ccc2cc(CN3CCCCC3)cnc12
> 270 °C | Nc1nnc(-c2cc3c(Oc4ccc(Cl)cc4)cncc3s2)s1
214 °C | Cn1ccnc1S(=O)(=O)C(C#N)=Cc1c(Cl)n(CC2CC2)c2ccccc12
75 °C | CCOC(=O)C(C)=Cc1ccc([N+](=O)[O-])cc1
62 to 64 °C | CCCCCCCCCCc1nnn(C(C(=O)O)c2ccccc2)n1 (stereo unspecified)
200 to 202 °C | O=C(CCc1cc2cccnc2n(-c2cccc([N+](=O)[O-])c2)c1=O)c1ccncc1
177 to 178 °C | COc1ccc(S(=O)(=O)N(CC(=O)O)CC(=O)O)cc1
95 to 97 °C | CCC(Oc1ccc(Cl)c(C)c1)C(=O)NCc1ccccc1 (stereo unspecified)
132 to 133 °C | COc1ccc(-c2ccc(C(C)O)cc2)cc1 (single isomer, unassigned; (+))
109 °C | CS(=O)(=O)Oc1ccc2c(c1)CN(C(=O)CCCCCN1CCN(c3cccc(C(F)(F)F)c3)CC1)C2
203 to 206 °C | CC(c1oc2ccccc2c(=O)c1-c1cccc(F)c1)n1nc(-c2ccc(F)nc2)c2c(N)ncnc21 (stereo unspecified)
115 to 116 °C | COC(=O)Cc1ccc(OCc2ccc(-c3ccccc3)cc2)cc1
115 °C | CC(c1ccc(O)cc1)C(CS)C(=O)NC(Cc1ccc(O)cc1)C(=O)O (stereo unspecified)
80 °C | COc1ccc(Cl)cc1C(CCO)c1ccccc1 (stereo unspecified)
137 to 138 °C | CCCCCCc1nc2cnc3ccccc3c2n1CCCCNS(=O)(=O)c1ccccc1
229 to 234 °C | COc1cc(OC)nc(OC(C(=O)O)C(C)(c2ccccc2)c2ccccc2)n1 (stereo unspecified)
> 270 °C | COc1nc(-c2ccc(F)cc2)nc(-c2ccccn2)n1
